Assay results published in patent US20050107606A1 (published 2005).

melting point: 82 to 84 °C
SMILES: CCCn1cncc1CSc1ccc(NC(=O)C(F)(F)F)cc1
